Molecular target: T1, human S1P3 receptor (EDG3) (Homo sapiens, UniProt Q99500)
T1 construct: expressed in transfected cells; host or cells: rat basophilic leukaemia cells RBL-2H3 (membranes, GTPγS assay) or GeneBLAzer EDG3-Ga15-NFAT-bla HEK 293T cells
Assay: S1P3 GTPγS assay or S1P3 GeneBlazer assay (at least one of the above assays)
Format: cell-based
Settings: given as EC50
Protocol: S1P3 membranes from rat basophilic leukaemia cells (RBL-2H3) (1.5 μg/well) were adhered to WGA-coated SPA beads (0.125 mg/well) in assay buffer (HEPES 20 mM, MgCl2 3 mM, NaCl 100 mM and pH adjusted to 7.4 using KOH 5M), GDP 10 μM FAC and saponin 90 μg/ml FAC was also added).
After 30 minutes pre-coupling on ice the bead and membrane suspension was dispensed into a white Greiner polypropylene LV384-well plate (5 μl/well), containing 0.1 μl of the compound. 5 μl/well [^35S]-GTPγS (0.5 nM final radioligand conc) made up in assay buffer was then added to agonist plates. The final assay cocktail (10.1 μl) was centrifuged at 1000 rpm for 5 minutes then read immediately on a Viewlux reader.
All test compounds were dissolved in DMSO at a concentration of 10 mM and were prepared in 100% DMSO using a 1 in 4 dilution step to provide 11 point dose response curves. The dilutions were transferred to the assay plates ensuring that the DMSO concentration was constant across the plate for all assays. […]
After incubation at 37° C., 5% CO2 for 5 h, 25 μl of 6× substrate mixture (6 μl Solution A (1 mg LiveBLAzer™-FRET B/G Substrate (CCF4-AM) in 912 μl DMSO) plus 60 μl Solution B plus 934 μl Solution C) was added to each well and incubate at room temperature for 2 h in dark. The plate was finally read on EnVision for two emission channels (460 nm and 530 nm). […]

T1 sequence (Q99500 whole entry): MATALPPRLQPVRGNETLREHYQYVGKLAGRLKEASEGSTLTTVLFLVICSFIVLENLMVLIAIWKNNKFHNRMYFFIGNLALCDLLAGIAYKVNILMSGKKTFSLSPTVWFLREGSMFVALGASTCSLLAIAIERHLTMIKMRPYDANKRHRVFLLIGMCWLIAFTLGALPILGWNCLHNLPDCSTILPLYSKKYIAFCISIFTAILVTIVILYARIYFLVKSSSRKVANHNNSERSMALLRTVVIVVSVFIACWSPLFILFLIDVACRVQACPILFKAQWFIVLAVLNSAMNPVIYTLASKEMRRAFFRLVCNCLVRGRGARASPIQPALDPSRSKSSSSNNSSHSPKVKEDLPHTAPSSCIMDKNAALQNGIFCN

EC50: 316 nM
SMILES: CC(C)Oc1ccc(-c2nc(-c3cccc4c([C@H]5C[C@H]5C(=O)O)cn(C)c34)no2)cc1Cl (relative stereo) [Example 40, cis-2-[7-(5-{3-chloro-4-[(1-methylethyl)oxy]phenyl}-1,2,4-oxadiazol-3-yl)-1-methyl-1H-indol-3-yl]cyclopropanecarboxylic acid]

Reference: patent US20100010053A1, “COMPOUNDS” (priority 2008, published 2010)
